Legend:
[1] = Antitumor activity against human A549 cells xenografted in BALB/c nude mouse assessed as tumor volume at 2 mg/kg, ip administered 14 times in 22 days measured on day 1 post dose (reference value: 117.71 +/- 7.29 mm3); format: functional
[2] = Antitumor activity against human A549 cells xenografted in BALB/c nude mouse assessed as tumor volume at 2 mg/kg, ip administered 14 times in 22 days measured on day 22 post dose (reference value: 912.28 +/- 140.04 mm3); format: functional
[3] = Antitumor activity against human A549 cells xenografted in BALB/c nude mouse assessed as tumor growth inhibition at 2 mg/kg, ip administered 14 times in 22 days measured on day 22 post dose relative to control; format: functional; conditions: 528 h, read-out: TGI
[4] = Antitumor activity against human A549 cells xenografted in BALB/c nude mouse assessed as tumor growth inhibition at 2 mg/kg, ip administered 14 times in 22 days measured on day 15 post dose relative to control; format: functional; conditions: read-out: TGI
cells [5] = conditions: Homo sapiens, HCT-116, 72 h
Description: Antiproliferative activity against human HCT116 cells after 72 hrs by MTT assay

Mus musculus [6] = assay: Toxicity in BALB/c nude mouse xenografted with human A549 cells assessed as body weight at 2 mg/kg, ip administered 14 times in 22 days measured on day 22 post dose (reference value: 25.59 +/- 1.16 g); format: organism-based; conditions: in vivo, 528 h
[7] = Antiproliferative activity against human MDA-MB-231 cells after 72 hrs by MTT assay; format: functional, cell-based; conditions: MDA-MB-231, 72 h, read-out: IC50
Mus musculus [8] = assay: Toxicity in BALB/c nude mouse xenografted with human A549 cells assessed as body weight at 2 mg/kg, ip administered 14 times in 22 days measured on day 8 post dose (reference value: 25.19 +/- 1.38 g); format: organism-based; conditions: in vivo, 528 h
[9] = Antitumor activity against human A549 cells xenografted in BALB/c nude mouse assessed as tumor volume at 2 mg/kg, ip administered 14 times in 22 days measured on day 8 post dose (reference value: 288.71 +/- 54.75 mm3); format: functional
Mus musculus [10] = assay: Toxicity in BALB/c nude mouse xenografted with human A549 cells assessed as body weight at 2 mg/kg, ip administered 14 times in 22 days measured on day 1 post dose (reference value: 24.73 +/- 1.33 g); format: organism-based; conditions: in vivo, 528 h
Mus musculus [11] = assay: Toxicity in BALB/c nude mouse xenografted with human A549 cells assessed as body weight at 2 mg/kg, ip administered 14 times in 22 days measured on day 4 post dose (reference value: 24.84 +/- 1.22 g); format: organism-based; conditions: in vivo, 528 h
Mus musculus [12] = assay: Toxicity in BALB/c nude mouse xenografted with human A549 cells assessed as body weight at 2 mg/kg, ip administered 14 times in 22 days measured on day 15 post dose (reference value: 25.41 +/- 1.04 g); format: organism-based; conditions: in vivo, 528 h
Mus musculus [13] = assay: Toxicity in BALB/c nude mouse xenografted with human A549 cells assessed as body weight at 2 mg/kg, ip administered 14 times in 22 days measured on day 18 post dose (reference value: 25.66 +/- 1.16 g); format: organism-based; conditions: in vivo, 528 h
Mus musculus [14] = assay: Toxicity in BALB/c nude mouse xenografted with human A549 cells assessed as body weight at 2 mg/kg, ip administered 14 times in 22 days measured on day 11 post dose (reference value: 24.99 +/- 0.97 g); format: organism-based; conditions: in vivo, 528 h
[15] = Antitumor activity against human A549 cells xenografted in BALB/c nude mouse assessed as tumor growth inhibition at 2 mg/kg, ip administered 14 times in 22 days measured on day 11 post dose relative to control; format: functional; conditions: read-out: TGI
[16] = Antitumor activity against human A549 cells xenografted in BALB/c nude mouse assessed as tumor growth inhibition at 2 mg/kg, ip administered 14 times in 22 days measured on day 18 post dose relative to control; format: functional; conditions: read-out: TGI
[17] = Antitumor activity against human A549 cells xenografted in BALB/c nude mouse assessed as tumor growth inhibition at 2 mg/kg, ip administered 14 times in 22 days measured on day 8 post dose relative to control; format: functional; conditions: read-out: TGI
[18] = Antiproliferative activity against human HL60 cells after 72 hrs by MTT assay; format: functional, cell-based; conditions: HL-60, 72 h
[19] = Antitumor activity against human A549 cells xenografted in BALB/c nude mouse assessed as tumor volume at 2 mg/kg, ip administered 14 times in 22 days measured on day 4 post dose (reference value: 207.73 +/- 56.48 mm3); format: functional
cells [20] = conditions: Homo sapiens, A549, 72 h
Description: Antiproliferative activity against human A549 cells after 72 hrs by MTT assay

[21] = Antiproliferative activity against human HepG2 cells after 72 hrs by MTT assay; format: functional, cell-based; conditions: HepG2, 72 h
[22] = Antitumor activity against human A549 cells xenografted in BALB/c nude mouse assessed as tumor volume at 2 mg/kg, ip administered 14 times in 22 days measured on day 15 post dose (reference value: 502.27 +/- 69.26 mm3); format: functional
[23] = Antitumor activity against human A549 cells xenografted in BALB/c nude mouse assessed as tumor growth inhibition at 2 mg/kg, ip administered 14 times in 22 days measured on day 4 post dose relative to control; format: functional; conditions: read-out: TGI
[24] = Antitumor activity against human A549 cells xenografted in BALB/c nude mouse assessed as tumor volume at 2 mg/kg, ip administered 14 times in 22 days measured on day 11 post dose (reference value: 373.93 +/- 59.98 mm3); format: functional
Mus musculus [25] = assay: Toxicity in BALB/c nude mouse xenografted with human A549 cells assessed as body weight at 50 mg/kg, ip administered 14 times in 22 days measured on day 11 post dose (reference value: 24.99 +/- 0.97 g); format: organism-based; conditions: in vivo, 528 h
[26] = Antitumor activity against human A549 cells xenografted in BALB/c nude mouse assessed as tumor volume at 50 mg/kg, ip administered 14 times in 22 days measured on day 1 post dose (reference value: 117.71 +/- 7.29 mm3); format: functional
[27] = Antitumor activity against human A549 cells xenografted in BALB/c nude mouse assessed as tumor volume at 50 mg/kg, ip administered 14 times in 22 days measured on day 22 post dose (reference value: 912.28 +/- 140.04 mm3); format: functional
[28] = Antitumor activity against human A549 cells xenografted in BALB/c nude mouse assessed as tumor volume at 50 mg/kg, ip administered 14 times in 22 days measured on day 4 post dose (reference value: 207.73 +/- 56.48 mm3); format: functional
[29] = Antitumor activity against human A549 cells xenografted in BALB/c nude mouse assessed as tumor volume at 50 mg/kg, ip administered 14 times in 22 days measured on day 8 post dose (reference value: 288.71 +/- 54.75 mm3); format: functional
Mus musculus [30] = assay: Toxicity in BALB/c nude mouse xenografted with human A549 cells assessed as body weight at 50 mg/kg, ip administered 14 times in 22 days measured on day 22 post dose (reference value: 25.59 +/- 1.16 g); format: organism-based; conditions: in vivo, 528 h
[31] = Antitumor activity against human A549 cells xenografted in BALB/c nude mouse assessed as tumor growth inhibition at 50 mg/kg, ip administered 14 times in 22 days measured on day 8 post dose relative to control; format: functional; conditions: read-out: TGI
[32] = Antitumor activity against human A549 cells xenografted in BALB/c nude mouse assessed as tumor growth inhibition at 50 mg/kg, ip administered 14 times in 22 days measured on day 11 post dose relative to control; format: functional; conditions: read-out: TGI
Mus musculus [33] = assay: Toxicity in BALB/c nude mouse xenografted with human A549 cells assessed as body weight at 50 mg/kg, ip administered 14 times in 22 days measured on day 1 post dose (reference value: 24.73 +/- 1.33 g); format: organism-based; conditions: in vivo, 528 h
Mus musculus [34] = assay: Toxicity in BALB/c nude mouse xenografted with human A549 cells assessed as body weight at 50 mg/kg, ip administered 14 times in 22 days measured on day 15 post dose (reference value: 25.41 +/- 1.04 g); format: organism-based; conditions: in vivo, 528 h
[35] = Antitumor activity against human A549 cells xenografted in BALB/c nude mouse assessed as tumor volume at 50 mg/kg, ip administered 14 times in 22 days measured on day 11 post dose (reference value: 373.93 +/- 59.98 mm3); format: functional
[36] = Antitumor activity against human A549 cells xenografted in BALB/c nude mouse assessed as tumor volume at 50 mg/kg, ip administered 14 times in 22 days measured on day 18 post dose (reference value: 692.11 +/- 102.17 mm3); format: functional
[37] = Antitumor activity against human A549 cells xenografted in BALB/c nude mouse assessed as tumor growth inhibition at 50 mg/kg, ip administered 14 times in 22 days measured on day 4 post dose relative to control; format: functional; conditions: read-out: TGI
Mus musculus [38] = assay: Toxicity in BALB/c nude mouse xenografted with human A549 cells assessed as body weight at 50 mg/kg, ip administered 14 times in 22 days measured on day 18 post dose (reference value: 25.66 +/- 1.16 g); format: organism-based; conditions: in vivo, 528 h
Dihydrofolate reductase = molecular target: T1, Dihydrofolate reductase (Homo sapiens, UniProt P00374); assay: Inhibition of recombinant human DHFR using DHF as substrate measured every 5 sec over 6 mins in presence of NADPH by UV-Visible spectrophotometric method relative to control
T1 sequence (P00374 whole entry): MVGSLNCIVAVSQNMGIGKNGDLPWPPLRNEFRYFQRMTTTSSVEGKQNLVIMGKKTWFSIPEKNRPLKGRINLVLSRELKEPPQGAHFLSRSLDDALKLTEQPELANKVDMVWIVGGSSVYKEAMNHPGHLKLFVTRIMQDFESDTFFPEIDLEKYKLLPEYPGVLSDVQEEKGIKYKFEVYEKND

[39] = Antitumor activity against human A549 cells xenografted in BALB/c nude mouse assessed as tumor growth inhibition at 50 mg/kg, ip administered 14 times in 22 days measured on day 22 post dose relative to control; format: functional; conditions: 528 h, read-out: TGI
Mus musculus [40] = assay: Toxicity in BALB/c nude mouse xenografted with human A549 cells assessed as body weight at 50 mg/kg, ip administered 14 times in 22 days measured on day 8 post dose (reference value: 25.19 +/- 1.38 g); format: organism-based; conditions: in vivo, 528 h
[41] = Antitumor activity against human A549 cells xenografted in BALB/c nude mouse assessed as tumor volume at 50 mg/kg, ip administered 14 times in 22 days measured on day 15 post dose (reference value: 502.27 +/- 69.26 mm3); format: functional
Mus musculus [42] = assay: Toxicity in BALB/c nude mouse xenografted with human A549 cells assessed as body weight at 50 mg/kg, ip administered 14 times in 22 days measured on day 4 post dose (reference value: 24.84 +/- 1.22 g); format: organism-based; conditions: in vivo, 528 h
[43] = Antitumor activity against human A549 cells xenografted in BALB/c nude mouse assessed as tumor growth inhibition at 50 mg/kg, ip administered 14 times in 22 days measured on day 15 post dose relative to control; format: functional; conditions: read-out: TGI
[44] = Antitumor activity against human A549 cells xenografted in BALB/c nude mouse assessed as tumor growth inhibition at 50 mg/kg, ip administered 14 times in 22 days measured on day 18 post dose relative to control; format: functional; conditions: read-out: TGI

Compound: CN(Cc1cnc2nc(N)nc(N)c2n1)c1ccc(C(=O)N[C@@H](CCC(=O)O)C(=O)O)cc1 [METHOTREXATE]
- Activity [1]: 115.14 mm3
- Activity [2]: 440.75 mm3
- inhibition in vivo at 2 mg/kg [3]: 50.8%
- inhibition in vivo at 2 mg/kg [4]: 45%
- IC50 (cells [5]): 750 nM
- Activity (Mus musculus [6]): 21.4 g
- IC50 [7]: 9490 nM
- Activity (Mus musculus [8]): 24.88 g
- Activity [9]: 189.83 mm3
- Activity (Mus musculus [10]): 25.28 g
- Activity (Mus musculus [11]): 25.47 g
- Activity (Mus musculus [12]): 21.85 g
- Activity (Mus musculus [13]): 21.62 g
- Activity (Mus musculus [14]): 23.98 g
- inhibition in vivo at 2 mg/kg [15]: 29.2%
- inhibition in vivo at 2 mg/kg [16]: 50.6%
- inhibition in vivo at 2 mg/kg [17]: 32.7%
- IC50 [18]: 1090 nM
- Activity [19]: 153.09 mm3
- IC50 (cells [20]): 250 nM
- IC50 [21]: 410 nM
- Activity [22]: 271.71 mm3
- inhibition in vivo at 2 mg/kg [23]: 24.6%
- Activity [24]: 223.6 mm3

Compound: Br.NC1=NC2(CCOCC2)N(OCCCOc2ccc(Cl)cc2Cl)C(N)=N1
- Activity (Mus musculus [25]): 22.97 g
- Activity [26]: 117.63 mm3
- Activity [27]: 574.09 mm3
- Activity [28]: 170.3 mm3
- Activity [29]: 249.09 mm3
- IC50 (cells [5]): 880 nM
- Activity (Mus musculus [30]): 23.47 g
- inhibition in vivo at 50 mg/kg [31]: 14.5%
- inhibition in vivo at 50 mg/kg [32]: 16.3%
- Activity (Mus musculus [33]): 23.65 g
- Activity (Mus musculus [34]): 23.63 g
- Activity [35]: 312.21 mm3
- Activity [36]: 468.15 mm3
- inhibition in vivo at 50 mg/kg [37]: 17.6%
- Activity (Mus musculus [38]): 23.65 g
- IC50 (Dihydrofolate reductase): 7.46 nM
- inhibition in vivo at 50 mg/kg [39]: 36.8%
- IC50 [18]: 330 nM
- IC50 (cells [20]): 70 nM
- Activity (Mus musculus [40]): 23.17 g
- Activity [41]: 378.49 mm3
- Activity (Mus musculus [42]): 23.53 g
- inhibition in vivo at 50 mg/kg [43]: 24.7%
- inhibition in vivo at 50 mg/kg [44]: 32.8%

— ChEMBL document CHEMBL3877300, “Design, synthesis, docking studies and biological evaluation of novel dihydro-1,3,5-triazines as human DHFR inhibitors” (Eur J Med Chem, 2017)
